What was measured:
[1] = system: Human fibrosarcoma cells (HT-1080 cells); assay: In vitro inhibitory action against ferroptosis (Erastin-induced cell death, Cell Counting Kit-8); type: cell-based; conditions: Evaluation concentration 30 μmol/L, Erastin 3 μmol/L, 24 hours
Experimental: The inhibitory action against ferroptosis of the tetrahydroquinoline derivative (I) or a pharmaceutically acceptable salt thereof was evaluated with Human fibrosarcoma cells (HT-1080 cells), by using, as an index, the inhibitory action against the cell death induced by treatment with a ferroptosis inducer, Erastin.
HT-1080 cells (ATCC) were cultured in a mixture (hereinafter referred to as vehicle) composed of DMEM/F12 (Thermo Fisher Scientific, Inc.), a final concentration of 10% fetal bovine serum (Thermo Fisher Scientific, Inc.), and a final concentration of 1% penicillin-streptomycin solution (Nacalai Tesque, Inc.). Cells were seeded into 96-well plates (Corning Inc.) at 5×10^4 cells/well and cultured overnight.
A test compound was dissolved in DMSO, and the resulting solution was diluted in the vehicle to a final concentration of 1% DMSO and then used. […] Twenty-four hours after the addition of Erastin, 5 μL of Cell Counting Kit-8 (Dojindo Laboratories) was added to each well and incubated for 4 hours, and the absorbance at 450 nm was then measured for each well (N=2). The average absorbance value at 450 nm was calculated from the absorbance values of the wells, and the inhibition rate of ferroptosis by the test compound (hereinafter referred to as ferroptosis inhibition rate, %) was then calculated based on Equation 1.

[2] = In vitro radical scavenging action (DPPH method); conditions: 1.2-100 μmol/L, 30 minutes at room temperature, absorbance at 517 nm
Experimental: The radical scavenging action of a test compound can be evaluated using an in vitro test and, for example, by a method (Antioxidants, 2019, vol. 258) using a stable radical, 1,1-diphenyl-2-picrylhydrazil (DPPH).
Radical scavenging action was evaluated using the DPPH method in the compound of Comparative Example 1, which is a tetrahydroquinoxaline derivative, and in the tetrahydroquinoline derivative (I) or a pharmaceutically acceptable salt thereof. The DPPH method was performed using an antioxidant capacity measurement kit (Dojindo Laboratories).
A test compound was dissolved in DMSO, and the resulting solution was then mixed with an assay buffer and a DPPH solution, which are included in the kit, to a total volume of 200 μL to obtain a final concentration of 10% DMSO, and the reaction was allowed to proceed. Wells added with […] ferrostatin-1, a radical scavenger, were grouped as “control,” and wells not added with test compound were grouped as “background”. The test compound was serially diluted 3-fold starting from a maximum concentration of 100 μmol/L, and the diluted test compound (1.2, 3.7, 11.1, 33.3, or 100 μmol/L) was added and allowed to react at room temperature. Thirty minutes after the reaction, the absorbance at 517 nm was measured, and the average absorbance value was calculated (N=2). The radical scavenging action of the test compound (hereinafter referred to as radical scavenging rate, %) was calculated based on Equation 2. The EC50 value of the test compound was calculated from the radical scavenging rate.
A note “no detection of radical scavenging action (N.D.),” is given to compounds with a EC50 of >100 μmol/L.

[3] = system: superoxide dismutase 1 (SOD1) G93A transgenic mice; assay: Assessment of motor dysfunction in amyotrophic lateral sclerosis model mouse (hind limb extension test); type: in vivo
Experimental: The effect of the tetrahydroquinoline derivative (I) or a pharmaceutically acceptable salt thereof on the onset of a motor dysfunction in superoxide dismutase 1 (SOD1) G93A transgenic mice that are amyotrophic lateral sclerosis model mice was tested. The tetrahydroquinoline derivative (I) or a pharmaceutically acceptable salt thereof was evaluated using the compound of Example 1. The amyotrophic lateral sclerosis model mice used were transgenic mice overexpressing human superoxide dismutase 1 (SOD1) with G93A mutation (Jackson Laboratories #004435). Male transgenic mice and wild-type female C57BL/6J mice from Charles River were mated. The tail tips of the born offspring mice were used for genotyping. The obtained male transgenic mice were used for the evaluation. The test substance (compound of Example 1) was prepared as a suspension with the required concentration (10 mg/mL) using 0.5 w/v % methylcellulose as the vehicle, and was administered repeatedly and orally, once daily, five times a week, at a dosing volume of 10 mL/kg, or 100 mg/kg, starting at 56 days of age and continuing for 10 weeks (50 doses in total) until the mice reached 126 days of age. A group administered repeatedly and orally with the compound of Example 1 was termed the “Example 1” group (n=9). In addition, a group administered with 0.5 w/v % methylcellulose in the same volume, frequency, and method as the compound of Example 1 was termed the “vehicle” group (n=6). Whenever possible, litters were divided into both groups. Starting from the beginning of administration, a hind limb extension test was conducted before each dose to evaluate the motor function. […] The hind limb extension test was performed five times a week.

Molecule | EC50 [2] | also measured
7-fluoro-(1H-pyrazol-4-yl)-1,2,3,4-tetrahydroquinoline [Example 140] |  | Ferroptosis inhibition rate (%) [1]: 72.81%
NC(=O)c1ccc(C2CCc3ccccc3N2)cc1 (centres unmarked) [Example 36, 4-(1,2,3,4-tetrahydroquinolin-2-yl)benzamide] | > 100 µM | 
Cl.c1ccc(C2CCc3ccccc3N2)cc1 (centres unmarked) [Example 1, 2-phenyl-1,2,3,4-tetrahydroquinoline hydrochloride] | > 100 µM | median value of the onset age in days ([3]; 100 mg/kg orally once daily, five times a week, from 56 days of age for 10 weeks, male SOD1 G93A transgenic mice, n=9): 121.0 days of age; age of onset in days vs vehicle group, log-rank (Mantel-Cox) test p ([3]; 100 mg/kg orally once daily, five times a week, from 56 days of age for 10 weeks, significantly higher than vehicle group): < 0.05; effect on onset of motor dysfunction in amyotrophic lateral sclerosis model mice (in words) ([3]; compared to the vehicle group): delay the onset
CC(C)(C)NC(=O)Cc1ccc2c(c1)CCC(c1ccccc1)N2 (centres unmarked) [Example 61, N-(tert-butyl)-2-(2-phenyl-1,2,3,4-tetrahydroquinolin-6-yl)acetamide] | > 100 µM | 
O=C(Cc1ccc2c(c1)CCC(c1ccccc1)N2)NC1COC1 (centres unmarked) [Example 148, N-(oxetan-3-yl)-2-(2-phenyl-1,2,3,4-tetrahydroquinolin-6-yl)acetamide] | > 100 µM | 
O=C(Cc1ccc2c(c1)CCC(c1ccccc1)N2)N1CCNCC1 (centres unmarked) [Example 158, 2-(2-phenyl-1,2,3,4-tetrahydroquinolin-6-yl)-1-(piperazin-1-yl)ethan-1-one] | > 100 µM | 
Cc1ccc2c(c1)NC(c1ccc(S(N)(=O)=O)cc1)CC2 (centres unmarked) [Example 105, 4-(7-methyl-1,2,3,4-tetrahydroquinolin-2-yl)benzenesulfonamide] | > 100 µM | 
O=C(Cc1ccc2c(c1)CCC(c1ccccc1)N2)N1CC(F)(F)C1 (centres unmarked) [Example 161, 1-(3,3-difluoroazetidin-1-yl)-2-(2-phenyl-1,2,3,4-tetrahydroquinolin-6-yl)ethan-1-one] | > 100 µM | 
NC(=O)c1ccc(C2CCc3cc(F)ccc3N2)cc1 (centres unmarked) [Example 132, 4-(6-fluoro-1,2,3,4-tetrahydroquinolin-2-yl)benzamide] | > 100 µM | 
NS(=O)(=O)c1ccc(C2CCc3cc(Cl)ccc3N2)cc1 (centres unmarked) [Example 115, 4-(6-chloro-1,2,3,4-tetrahydroquinolin-2-yl)benzenesulfonamide] | > 100 µM | 
Cc1ccc2c(c1)CCC(c1ccc(S(N)(=O)=O)cc1)N2 (centres unmarked) [Example 120, 4-(6-methyl-1,2,3,4-tetrahydroquinolin-2-yl)benzenesulfonamide] | > 100 µM | 
NC(=O)c1ccc(C2CCc3c(Cl)cccc3N2)cc1 (centres unmarked) [Example 138, 4-(5-chloro-1,2,3,4-tetrahydroquinolin-2-yl)benzamide] | > 100 µM | 
NS(=O)(=O)c1ccc(C2CCc3cc(Cl)ccc3N2)cc1 (centres unmarked) [Example 117, 4-(6-chloro-1,2,3,4-tetrahydroquinolin-2-yl)benzenesulfonamide] | > 100 µM | 
Clc1ccc2c(c1)NC(c1ccccc1)CC2 (centres unmarked) [Example 69, 7-chloro-2-phenyl-1,2,3,4-tetrahydroquinoline] | > 100 µM | 
O=C(Cc1ccc2c(c1)CCC(c1ccccc1)N2)N1CC(F)(F)C1 (centres unmarked) [Example 160, 1-(3,3-difluoroazetidin-1-yl)-2-(2-phenyl-1,2,3,4-tetrahydroquinolin-6-yl)ethan-1-one] | > 100 µM | 
O=C(Cc1ccc2c(c1)CCC(c1ccccc1)N2)N1CC(F)(F)C1 (centres unmarked) [Example 149, 1-(3,3-difluoroazetidin-1-yl)-2-(2-phenyl-1,2,3,4-tetrahydroquinolin-6-yl)ethan-1-one] | > 100 µM | 
FC(F)(F)Oc1ccc(C2CCc3ccccc3N2)cc1 (centres unmarked) [Example 31, 2-(4-(trifluoromethoxy)phenyl)-1,2,3,4-tetrahydroquinoline] | > 100 µM | 
